From US10844077B2, “Thiazolyl-containing compounds for treating proliferative diseases” (Dana-Farber Cancer Institute, Inc., priority 2014, dated 2020)
Like-named read-outs stand apart in the source and are kept apart here.

Columns and labels:
Format in all cases: cell-based
[1] = biological target: kinases in BCWM.1 cells (Homo sapiens, UniProt P42680); settings: TEC; Activation Loop; 1 μM, 90 min; GF
Procedure: (§1) The cells were harvested and lysed. […] Bound kinases were identified and quantitated by ACTIVX as described in Patricelli et al., Biochemistry, 2007, 46(2): 350-358. The compounds were tested in duplicates against duplicate or quadruplicate control samples.

[2] = biological target: kinases in BCWM.1 cells (Homo sapiens, UniProt P51955); settings: NEK2; Lys2; 1 μM, 90 min; GF
Procedure: as §1

[3] = biological target: kinases in BCWM.1 cells (Homo sapiens, UniProt Q86Y07); settings: VRK2; Lys2; 1 μM, 90 min; GF
Procedure: as §1

[4] = biological target: kinases in BCWM.1 cells (Homo sapiens, UniProt Q9UBF8); settings: PI4KB; ATP; 1 μM, 90 min; GF
Procedure: as §1

[5] = biological target: kinases in BCWM.1 cells (Homo sapiens, UniProt O43318); settings: TAK1; Lys2; 1 μM, 90 min; GF
Procedure: as §1

[6] = biological target: kinases in BCWM.1 cells (Homo sapiens, UniProt Q9NZJ5); settings: PEK; Lys2; 1 μM, 90 min; GF
Procedure: as §1

[7] = biological target: kinases in BCWM.1 cells (Homo sapiens, UniProt Q86UE8); settings: TLK2; Lys2; 1 μM, 90 min; GF
Procedure: as §1

[8] = biological target: kinases in BCWM.1 cells (Homo sapiens, UniProt P23443); settings: p70S6K; Lys2; 1 μM, 90 min; GF
Procedure: as §1

[9] = biological target: kinases in BCWM.1 cells (Homo sapiens, UniProt Q9BYT3); settings: STK33; Lys2; 1 μM, 90 min; GF
Procedure: as §1

[10] = biological target: kinases in BCWM.1 cells (Homo sapiens, UniProt O95819)
Procedure: as §1

[11] = biological target: kinases in BCWM.1 cells (Homo sapiens, UniProt P29597); settings: TYK2 domain2; Activation Loop; 1 μM, 90 min; GF
Procedure: as §1

[12] = biological target: kinases in BCWM.1 cells (Homo sapiens, UniProt Q9UBE8); settings: NLK; Lys2; 1 μM, 90 min; GF
Procedure: as §1

[13] = biological target: kinases in BCWM.1 cells (Homo sapiens, UniProt P51957); settings: NEK4; Lys2; 1 μM, 90 min; GF
Procedure: as §1

[14] = biological target: kinases in BCWM.1 cells (Homo sapiens, UniProt Q9NYL2); settings: ZAK; Lys1; 1 μM, 90 min; GF
Procedure: as §1

[15] = biological target: kinases in BCWM.1 cells (Homo sapiens, UniProt Q9UHD2); settings: TBK1; Lys1; 1 μM, 90 min; GF
Procedure: as §1

[16] = biological target: kinases in BCWM.1 cells (Homo sapiens, UniProt P42338); settings: PIK3CB; ATP; 1 μM, 90 min; GF
Procedure: as §1

[17] = biological target: kinases in BCWM.1 cells (Homo sapiens, UniProt Q9H2G2); settings: SLK; Lys2; 1 μM, 90 min; GF
Procedure: as §1

[18] = biological target: kinases in BCWM.1 cells (Homo sapiens, UniProt Q9Y2I7); settings: PIP5K3; ATP; 1 μM, 90 min; GF
Procedure: as §1

[19] = biological target: kinases in BCWM.1 cells (Homo sapiens, UniProt Q96Q15); settings: SMG1; ATP; 1 μM, 90 min; GF
Procedure: as §1

[20] = biological target: kinases in BCWM.1 cells (Homo sapiens, UniProt Q13464); settings: ROCK1; Protein Kinase Domain; 1 μM, 90 min; GF
Procedure: as §1

[21] = biological target: kinases in BCWM.1 cells (Homo sapiens, UniProt O75385); settings: ULK1; Lys2; 1 μM, 90 min; GF
Procedure: as §1

[22] = biological target: kinases in BCWM.1 cells (Homo sapiens, UniProt Q14289); settings: PYK2; Activation Loop; 1 μM, 90 min; GF
Procedure: as §1

[23] = biological target: kinases in BCWM.1 cells (Homo sapiens, UniProt Q9Y572); settings: RIPK3; Lys2; 1 μM, 90 min; GF
Procedure: as §1

[24] = biological target: kinases in BCWM.1 cells (Homo sapiens, UniProt Q58A45); settings: PAN3; Protein Kinase Domain; 1 μM, 90 min; GF
Procedure: as §1

[25] = biological target: kinases in BCWM.1 cells (Homo sapiens, UniProt Q96BR1); settings: SGK3; Lys1; 1 μM, 90 min; GF
Procedure: as §1

[26] = biological target: kinases in BCWM.1 cells (Homo sapiens, UniProt P21127); settings: PITSLRE; Lys2; 1 μM, 90 min; GF
Procedure: as §1

[27] = biological target: kinases in BCWM.1 cells (Homo sapiens, UniProt P15735); settings: PHKg2; Lys1; 1 μM, 90 min; GF
Procedure: as §1

[28] = biological target: kinases in BCWM.1 cells (Homo sapiens, UniProt O00750); settings: PIK3C2B; ATP; 1 μM, 90 min; GF
Procedure: as §1

[29] = biological target: kinases in BCWM.1 cells (Homo sapiens, UniProt P30291); settings: Wee1; Lys2; 1 μM, 90 min; GF
Procedure: as §1

Chain of kinases in BCWM.1 cells (Homo sapiens, UniProt Q9UBF8) (Q9UBF8 2-816 limits assumed): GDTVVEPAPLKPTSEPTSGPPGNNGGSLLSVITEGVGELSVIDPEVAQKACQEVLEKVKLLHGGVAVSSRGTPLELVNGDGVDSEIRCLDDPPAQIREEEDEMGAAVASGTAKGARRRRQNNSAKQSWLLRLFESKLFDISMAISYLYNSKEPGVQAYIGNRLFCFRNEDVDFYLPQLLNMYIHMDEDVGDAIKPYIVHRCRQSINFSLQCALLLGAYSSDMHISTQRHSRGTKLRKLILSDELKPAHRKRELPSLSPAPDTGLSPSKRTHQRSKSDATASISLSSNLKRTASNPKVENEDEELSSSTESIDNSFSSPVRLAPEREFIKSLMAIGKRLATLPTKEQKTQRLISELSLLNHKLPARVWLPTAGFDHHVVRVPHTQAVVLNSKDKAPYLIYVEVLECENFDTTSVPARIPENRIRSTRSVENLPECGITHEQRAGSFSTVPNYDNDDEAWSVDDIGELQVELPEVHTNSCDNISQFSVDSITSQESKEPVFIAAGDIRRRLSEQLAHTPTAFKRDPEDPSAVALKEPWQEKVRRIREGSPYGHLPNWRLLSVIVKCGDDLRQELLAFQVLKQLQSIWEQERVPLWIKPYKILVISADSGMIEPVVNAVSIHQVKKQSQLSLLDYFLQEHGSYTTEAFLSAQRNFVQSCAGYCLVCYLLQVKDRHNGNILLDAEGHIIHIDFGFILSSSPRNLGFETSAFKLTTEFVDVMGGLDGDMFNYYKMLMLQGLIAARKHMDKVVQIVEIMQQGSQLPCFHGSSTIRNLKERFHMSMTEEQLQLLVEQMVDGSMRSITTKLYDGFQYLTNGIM
Chain of kinases in BCWM.1 cells (Homo sapiens, UniProt Q9Y2I7) (Q9Y2I7 2-2098 limits assumed): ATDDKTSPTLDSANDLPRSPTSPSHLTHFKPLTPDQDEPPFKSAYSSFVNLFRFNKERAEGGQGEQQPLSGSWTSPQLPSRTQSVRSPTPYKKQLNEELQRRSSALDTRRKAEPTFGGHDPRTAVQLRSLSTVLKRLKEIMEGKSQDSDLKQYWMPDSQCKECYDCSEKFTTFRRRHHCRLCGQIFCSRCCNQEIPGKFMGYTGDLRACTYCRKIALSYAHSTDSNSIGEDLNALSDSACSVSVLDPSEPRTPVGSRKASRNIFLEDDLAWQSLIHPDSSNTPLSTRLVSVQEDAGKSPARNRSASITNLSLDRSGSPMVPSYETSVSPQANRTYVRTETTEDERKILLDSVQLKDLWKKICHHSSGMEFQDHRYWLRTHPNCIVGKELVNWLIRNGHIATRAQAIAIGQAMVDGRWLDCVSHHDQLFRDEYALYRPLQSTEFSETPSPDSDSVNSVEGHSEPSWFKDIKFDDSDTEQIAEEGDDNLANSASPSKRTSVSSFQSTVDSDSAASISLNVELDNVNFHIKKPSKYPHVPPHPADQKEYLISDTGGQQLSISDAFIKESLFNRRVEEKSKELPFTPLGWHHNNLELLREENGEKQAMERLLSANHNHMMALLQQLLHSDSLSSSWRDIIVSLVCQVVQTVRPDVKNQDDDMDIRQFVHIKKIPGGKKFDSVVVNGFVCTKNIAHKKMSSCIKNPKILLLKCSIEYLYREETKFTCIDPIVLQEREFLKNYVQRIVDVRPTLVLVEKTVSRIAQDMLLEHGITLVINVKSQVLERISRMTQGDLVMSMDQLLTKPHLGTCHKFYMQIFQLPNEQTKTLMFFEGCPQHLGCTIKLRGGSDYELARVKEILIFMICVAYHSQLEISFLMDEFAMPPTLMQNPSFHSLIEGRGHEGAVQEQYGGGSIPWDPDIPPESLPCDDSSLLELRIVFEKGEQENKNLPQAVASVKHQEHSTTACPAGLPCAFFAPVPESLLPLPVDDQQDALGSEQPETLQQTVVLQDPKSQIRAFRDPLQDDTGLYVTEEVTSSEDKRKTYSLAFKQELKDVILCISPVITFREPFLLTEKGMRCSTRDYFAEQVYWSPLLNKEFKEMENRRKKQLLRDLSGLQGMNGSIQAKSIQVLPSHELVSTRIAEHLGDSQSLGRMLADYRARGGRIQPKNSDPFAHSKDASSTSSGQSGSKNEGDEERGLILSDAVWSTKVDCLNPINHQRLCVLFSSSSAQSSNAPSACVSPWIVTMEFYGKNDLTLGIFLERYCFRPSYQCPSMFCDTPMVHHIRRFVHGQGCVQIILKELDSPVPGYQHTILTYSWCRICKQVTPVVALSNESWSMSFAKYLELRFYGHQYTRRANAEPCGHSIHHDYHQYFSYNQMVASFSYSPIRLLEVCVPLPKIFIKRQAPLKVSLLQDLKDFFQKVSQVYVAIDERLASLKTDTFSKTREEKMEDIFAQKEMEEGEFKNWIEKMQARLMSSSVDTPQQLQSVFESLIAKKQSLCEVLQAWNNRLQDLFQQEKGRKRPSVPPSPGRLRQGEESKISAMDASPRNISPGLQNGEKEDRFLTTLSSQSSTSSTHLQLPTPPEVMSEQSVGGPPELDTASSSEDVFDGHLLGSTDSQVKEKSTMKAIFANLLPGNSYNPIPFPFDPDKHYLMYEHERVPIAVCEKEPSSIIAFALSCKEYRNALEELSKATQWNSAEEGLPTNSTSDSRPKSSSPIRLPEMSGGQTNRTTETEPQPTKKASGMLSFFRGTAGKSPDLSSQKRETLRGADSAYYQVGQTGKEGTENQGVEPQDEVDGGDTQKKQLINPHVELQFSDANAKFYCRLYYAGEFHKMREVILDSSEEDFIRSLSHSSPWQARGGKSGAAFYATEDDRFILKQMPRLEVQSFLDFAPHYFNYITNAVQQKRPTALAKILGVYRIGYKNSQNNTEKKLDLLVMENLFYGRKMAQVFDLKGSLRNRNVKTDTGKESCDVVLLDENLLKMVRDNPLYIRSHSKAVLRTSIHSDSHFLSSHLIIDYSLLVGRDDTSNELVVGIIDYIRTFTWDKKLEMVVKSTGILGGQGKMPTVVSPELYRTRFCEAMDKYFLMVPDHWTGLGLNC
Chain of kinases in BCWM.1 cells (Homo sapiens, UniProt Q13464) (Q13464 2-1354 limits assumed): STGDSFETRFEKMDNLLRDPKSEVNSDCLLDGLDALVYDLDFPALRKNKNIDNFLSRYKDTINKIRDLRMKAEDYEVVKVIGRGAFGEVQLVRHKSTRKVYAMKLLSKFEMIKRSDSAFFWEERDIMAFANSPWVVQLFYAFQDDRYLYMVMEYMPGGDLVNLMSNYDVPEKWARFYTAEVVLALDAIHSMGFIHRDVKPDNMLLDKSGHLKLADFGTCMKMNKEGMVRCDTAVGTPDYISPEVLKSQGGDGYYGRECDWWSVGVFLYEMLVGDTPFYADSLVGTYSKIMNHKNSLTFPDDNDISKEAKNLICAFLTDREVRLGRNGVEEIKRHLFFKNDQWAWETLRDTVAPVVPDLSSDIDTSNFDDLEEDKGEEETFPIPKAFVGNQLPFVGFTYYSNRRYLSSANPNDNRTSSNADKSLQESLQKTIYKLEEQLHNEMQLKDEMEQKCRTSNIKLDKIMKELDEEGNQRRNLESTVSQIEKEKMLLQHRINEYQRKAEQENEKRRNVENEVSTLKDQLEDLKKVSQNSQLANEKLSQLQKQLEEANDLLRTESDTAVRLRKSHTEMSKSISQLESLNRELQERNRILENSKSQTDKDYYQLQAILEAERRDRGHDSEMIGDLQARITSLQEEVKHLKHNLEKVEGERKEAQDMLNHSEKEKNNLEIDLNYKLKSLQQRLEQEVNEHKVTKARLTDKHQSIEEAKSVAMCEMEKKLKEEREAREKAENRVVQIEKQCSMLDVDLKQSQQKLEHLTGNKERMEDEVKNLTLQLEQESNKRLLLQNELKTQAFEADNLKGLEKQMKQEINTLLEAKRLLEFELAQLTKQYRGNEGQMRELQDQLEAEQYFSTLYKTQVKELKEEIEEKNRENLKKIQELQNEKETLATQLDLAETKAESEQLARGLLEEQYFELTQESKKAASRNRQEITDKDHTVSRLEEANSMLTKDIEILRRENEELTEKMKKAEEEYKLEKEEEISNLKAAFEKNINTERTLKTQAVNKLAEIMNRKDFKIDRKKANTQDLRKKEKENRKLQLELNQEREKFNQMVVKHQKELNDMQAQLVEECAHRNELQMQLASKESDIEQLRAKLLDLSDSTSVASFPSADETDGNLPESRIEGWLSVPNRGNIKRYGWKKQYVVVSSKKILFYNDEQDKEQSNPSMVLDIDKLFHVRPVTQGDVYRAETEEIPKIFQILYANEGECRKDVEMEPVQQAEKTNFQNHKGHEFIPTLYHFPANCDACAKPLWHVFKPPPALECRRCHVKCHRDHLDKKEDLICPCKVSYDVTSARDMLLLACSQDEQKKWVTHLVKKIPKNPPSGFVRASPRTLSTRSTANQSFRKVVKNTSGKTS
Chain of kinases in BCWM.1 cells (Homo sapiens, UniProt Q9NYL2) (Q9NYL2 2-800 limits assumed): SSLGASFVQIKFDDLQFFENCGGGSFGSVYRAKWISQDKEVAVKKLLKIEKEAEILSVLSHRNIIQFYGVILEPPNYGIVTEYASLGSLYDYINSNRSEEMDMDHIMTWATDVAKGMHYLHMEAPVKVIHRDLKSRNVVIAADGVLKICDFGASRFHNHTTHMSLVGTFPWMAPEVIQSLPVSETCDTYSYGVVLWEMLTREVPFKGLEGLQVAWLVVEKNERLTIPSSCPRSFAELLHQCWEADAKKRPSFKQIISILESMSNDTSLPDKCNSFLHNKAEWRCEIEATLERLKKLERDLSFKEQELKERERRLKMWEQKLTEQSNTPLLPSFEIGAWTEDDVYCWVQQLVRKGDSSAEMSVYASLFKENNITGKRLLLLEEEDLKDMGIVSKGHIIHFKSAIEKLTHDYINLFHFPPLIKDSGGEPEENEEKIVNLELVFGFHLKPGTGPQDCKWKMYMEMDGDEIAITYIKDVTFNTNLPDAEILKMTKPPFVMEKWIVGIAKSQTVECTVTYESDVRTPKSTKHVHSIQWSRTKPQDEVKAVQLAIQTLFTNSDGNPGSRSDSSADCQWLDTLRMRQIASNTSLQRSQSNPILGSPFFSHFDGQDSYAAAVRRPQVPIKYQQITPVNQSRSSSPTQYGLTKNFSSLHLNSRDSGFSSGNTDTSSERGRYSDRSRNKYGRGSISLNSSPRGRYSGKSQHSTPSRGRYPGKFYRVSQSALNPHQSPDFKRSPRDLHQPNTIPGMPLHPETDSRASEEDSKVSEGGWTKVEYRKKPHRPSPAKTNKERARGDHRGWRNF

SMILES	% change of MS signal compared to control sample [1] [%]	% change of MS signal compared to control sample [2] [%]	% change of MS signal compared to control sample [3] [%]	% change of MS signal compared to control sample [4] [%]	% change of MS signal compared to control sample [5] [%]	% change of MS signal compared to control sample [6] [%]	% change of MS signal compared to control sample [7] [%]	% change of MS signal compared to control sample [8] [%]	% change of MS signal compared to control sample [9] [%]	% change of MS signal compared to control sample [11] [%]	% change of MS signal compared to control sample [12] [%]	% change of MS signal compared to control sample [13] [%]	% change of MS signal compared to control sample [14] [%]	% change of MS signal compared to control sample [15] [%]	% change of MS signal compared to control sample [16] [%]	% change of MS signal compared to control sample [17] [%]	% change of MS signal compared to control sample [18] [%]	% change of MS signal compared to control sample [19] [%]	% change of MS signal compared to control sample [20] [%]	% change of MS signal compared to control sample [21] [%]	further results
C=CC(=O)N1CC[C@H](Nc2nccc(Nc3ncc(C(=O)Nc4c(C)cccc4C)s3)n2)C1 [Example I-3]	>91	0.9	5.7	−4.1	−2.5	6.4	4.7	−51.5	11.8	−5.5	85.9	7.3	21.2	−1.6	39.9	1.6	−4.6	−36.7	−16.9	−8.2	% change of MS signal compared to control sample ([10]; ZC1/HGK, Lys1, 1 μM, 90 min, GF): −16.8%; % change of MS signal compared to control sample [22]: −12.1%; % change of MS signal compared to control sample [23]: 22%; % change of MS signal compared to control sample [24]: 2.5%; % change of MS signal compared to control sample [25]: −18.5%; % change of MS signal compared to control sample [26]: −8.6%; % change of MS signal compared to control sample [27]: 22.3%; % change of MS signal compared to control sample [28]: 39.1%; % change of MS signal compared to control sample [29]: −6.5%
CCC(=O)N1CC[C@H](Nc2nccc(Nc3ncc(C(=O)Nc4c(C)cccc4C)s3)n2)C1 [Example I-9]	40.8	4.3	−1.6	−3.1	1	15.4	−1.9	−8.6	16.1	−16.8	51.8	−1.7	12.1	10.8	18.5	4.3	−4.6	−1	−2.1	−1.7	% change of MS signal compared to control sample [10]: 15.3%; % change of MS signal compared to control sample [22]: −0.9%; % change of MS signal compared to control sample [23]: −27%; % change of MS signal compared to control sample [24]: 4%; % change of MS signal compared to control sample [25]: −1.1%; % change of MS signal compared to control sample [26]: −0.6%; % change of MS signal compared to control sample [27]: 5.3%; % change of MS signal compared to control sample [28]: 12.7%; % change of MS signal compared to control sample [29]: 8.6%
